Experiments:
[1] = system: HIV-1 strains, for e.g., 92HT599; test: Antiviral activity: p24 estimation in MT-2 cells infected with HIV-1; format: cell-based; settings: Human immunodeficiency virus 1, MT2, MT-2 cells infected with HIV-1, p24, ~96 hours; for IC50: read-out: Antiviral activity IC50 (nM) Efficacy IC50
Summary of the method: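 MT-2 cells infected with HIV-1 (e.g. 92HT599), plated at 30,000 cells/well with compound (DMSO ≤1%) and incubated ~96 h. Supernatant p24 quantified by kit; percent inhibition relative to vehicle controls.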

[2] = Single dose oral pharmacokinetic study; format: in vivo; settings: mouse, mice, 30 mg/kg, plasma; for AUC(0-t): read-out: Mice oral PK @30 mg/kg AUC 0-t; for Cmax: read-out: Mice oral PK @30 mg/kg Cmax
Summary of the method: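 Rats or mice received 30 mg/kg orally at 10 ml/kg dose volume. Retro-orbital blood was taken into K3 EDTA at defined intervals under light ether anesthesia and centrifuged to plasma. Plasma levels were measured by LC-MS-MS.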

Row | SMILES | inhibition at 0.1 µM [1] | inhibition at 1 µM [1] | IC50 [1] | AUC(0-t) [2] | Cmax [2]
1 | C=C(C)[C@@H]1CC[C@]2(C(=O)N3CCC[C@H]3c3nc4ccccc4[nH]3)CC[C@]3(C)[C@H](CC[C@@H]4[C@@]5(C)CC[C@H](OC(=O)[C@H]6C[C@@H](C(=O)O)C6(C)C)C(C)(C)[C@@H]5CC[C@]43C)[C@@H]12 [Compound 37] | 99% | 99% | 3.21 nM | 487 µg·h/mL | 16.8 µg/mL
2 | C=C(C)[C@@H]1CC[C@]2(C(=O)N3C[C@H](OCCOC)C[C@H]3c3nc(-c4ccccc4)c[nH]3)CC[C@]3(C)[C@H](CC[C@@H]4[C@@]5(C)CC[C@H](OC(=O)CC(C)(C)C(=O)O)C(C)(C)[C@@H]5CC[C@]43C)[C@@H]12 [Compound 43, 4-(((1R,3aS,5aR,5bR,7aR,9S,11aR,11bR,13aR,13bR)-3a-((2S,4R)-4-(2-methoxyethoxy)-2-(4-phenyl-1H-imidazol-2-yl)pyrrolidine-1-carbonyl)-5a,5b,8,8,11a-pentamethyl-1-(prop-1-en-2-yl)icosahydro-1H-cyclopenta[a]chrysen-9-yl)oxy)-2,2-dimethyl-4-oxobutanoic acid] |  |  | 0.3 nM | 333 µg·h/mL | 15.4 µg/mL
3 | C=C(C)[C@@H]1CC[C@]2(C(=O)N3C[C@H](OCCOC)C[C@H]3c3nc(-c4ccc(F)cc4)c[nH]3)CC[C@]3(C)[C@H](CC[C@@H]4[C@@]5(C)CC[C@H](OC(=O)CC(C)(C)C(=O)O)C(C)(C)[C@@H]5CC[C@]43C)[C@@H]12 [Compound 45, 4-(((1R,3aS,5aR,5bR,7aR,9S,11aR,11bR,13aR,13bR)-3a-((2S,4R)-2-(4-(4-fluorophenyl)-1H-imidazol-2-yl)-4-(2-methoxyethoxy)pyrrolidine-1-carbonyl)-5a,5b,8,8,11a-pentamethyl-1-(prop-1-en-2-yl)icosahydro-1H-cyclopenta[a]chrysen-9-yl)oxy)-2,2-dimethyl-4-oxo butanoic acid] |  |  | 0.3 nM | 275 µg·h/mL | 11.5 µg/mL
4 | C=C(C)[C@@H]1CC[C@]2(C(=O)N3CCC[C@H]3c3ncc(-c4ccc(OC)cc4)[nH]3)CC[C@]3(C)[C@H](CC[C@@H]4[C@@]5(C)CC[C@H](OC(=O)CC(C)(C)C(=O)O)C(C)(C)[C@@H]5CC[C@]43C)[C@@H]12 [Compound 46, 4-(((1R,3aS,5aR,5bR,7aR,9S,11aR,11bR,13aR,13bR)-3a-((S)-2-(5-(4-methoxyphenyl)-1H-imidazol-2-yl)pyrrolidine-1-carbonyl)-5a,5b,8,8,11a-pentamethyl-1-(prop-1-en-2-yl)icosahydro-1H-cyclopenta[a]chrysen-9-yl)oxy)-2,2-dimethyl-4-oxobutanoic acid] |  |  | 11 nM | 153 µg·h/mL | 8.71 µg/mL
5 | C=C(C)[C@@H]1CC[C@]2(C(=O)N3CCC[C@H]3c3nnc(-c4ccccc4)[nH]3)CC[C@]3(C)[C@H](CC[C@@H]4[C@@]5(C)CC[C@H](OC(=O)CC(C)(C)C(=O)O)C(C)(C)[C@@H]5CC[C@]43C)[C@@H]12 [Compound 48, 2,2-dimethyl-4-oxo-4-(((1R,3aS,5aR,5bR,7aR,9S,11aR,11bR,13aR,13bR)-5a,5b,8,8,11a-pentamethyl-3a-((S)-2-(5-phenyl-4H-1,2,4-triazol-3-yl)pyrrolidine-1-carbonyl)-1-(prop-1-en-2-yl)icosahydro-1H-cyclopenta[a]chrysen-9-yl)oxy)butanoic acid] |  |  | 5.8 nM | 299 µg·h/mL | 20.8 µg/mL
6 | CC1([C@@H]2CC[C@]3(C(=O)N4CCC[C@H]4c4ncc(-c5cccc(F)c5)[nH]4)CC[C@]4(C)[C@H](CC[C@@H]5[C@@]6(C)CC[C@H](OC(=O)[C@H]7C[C@@H](C(=O)O)C7(C)C)C(C)(C)[C@@H]6CC[C@]54C)[C@@H]23)CC1 [Compound 50, (1R,3S)-3-((((1R,3aS,5aR,5bR,7aR,9S,11aR,11bR,13aR,13bR)-3a-((S)-2-(5-(3-fluorophenyl)-1H-imidazol-2-yl)pyrrolidine-1-carbonyl)-5a,5b,8,8,11a-pentamethyl-1-(1-methylcyclopropyl)icosahydro-1H-cyclopenta[a]chrysen-9-yl)oxy)carbonyl)-2,2-dimethylcyclobutane-1-carboxylic acid] |  |  | 0.35 nM | 358 µg·h/mL | 13.9 µg/mL
7 | CC1([C@@H]2CC[C@]3(C(=O)N4CCC[C@H]4c4ncc(-c5ccccn5)[nH]4)CC[C@]4(C)[C@H](CC[C@@H]5[C@@]6(C)CC[C@H](OC(=O)[C@H]7C[C@@H](C(=O)O)C7(C)C)C(C)(C)[C@@H]6CC[C@]54C)[C@@H]23)CC1 [Compound 51, (1R,3S)-2,2-dimethyl-3-((((1R,3aS,5aR,5bR,7aR,9S,11aR,11bR,13aR,13bR)-5a,5b,8,8,11a-pentamethyl-1-(1-methylcyclopropyl)-3a-((S)-2-(5-(pyridin-2-yl)-1H-imidazol-2-yl)pyrrolidine-1-carbonyl)icosahydro-1H-cyclopenta[a]chrysen-9-yl)oxy)carbonyl)cyclobutane-1-carboxylic acid] |  |  | 43.3 nM | 160 µg·h/mL | 4.93 µg/mL
8 | COCCO[C@@H]1C[C@@H](c2nc(-c3ccc(F)cc3)c[nH]2)N(C(=O)[C@]23CC[C@@H](C4(C)CC4)[C@@H]2[C@H]2CC[C@@H]4[C@@]5(C)CC[C@H](OC(=O)[C@H]6C[C@@H](C(=O)O)C6(C)C)C(C)(C)[C@@H]5CC[C@@]4(C)[C@]2(C)CC3)C1 [Compound 55, (1R,3S)-3-((((1R,3aS,5aR,5bR,7aR,9S,11aR,11bR,13aR,13bR)-3a-((2S,4R)-2-(4-(4-fluorophenyl)-1H-imidazol-2-yl)-4-(2-methoxyethoxy)pyrrolidine-1-carbonyl)-5a,5b,8,8,11a-pentamethyl-1-(1-methylcyclopropyl)icosahydro-1H-cyclopenta[a]chrysen-9-yl)oxy)carbonyl)-2,2-dimethylcyclobutane-1-carboxylic acid] |  |  | 1.04 nM | 381 µg·h/mL | 14.3 µg/mL
9 | CC(C)(C)c1c[nH]c([C@@H]2CCCN2C(=O)[C@]23CC[C@@H](C4(C)CC4)[C@@H]2[C@H]2CC[C@@H]4[C@@]5(C)CC[C@H](OC(=O)[C@H]6C[C@@H](C(=O)O)C6(C)C)C(C)(C)[C@@H]5CC[C@@]4(C)[C@]2(C)CC3)n1 [Compound 56, (1R,3S)-3-((((1R,3aS,5aR,5bR,7aR,9S,11aR,11bR,13aR,13bR)-3a-((S)-2-(4-(tert-butyl)-1H-imidazol-2-yl)pyrrolidine-1-carbonyl)-5a,5b,8,8,11a-pentamethyl-1-(1-methylcyclopropyl)icosahydro-1H-cyclopenta[a]chrysen-9-yl)oxy)carbonyl)-2,2-dimethylcyclobutane-1-carboxylic acid] |  |  | 56.2 nM | 375 µg·h/mL | 12 µg/mL
10 | CC1([C@@H]2CC[C@]3(C(=O)N4CCC(c5ncc(-c6ccccc6)[nH]5)CC4)CC[C@]4(C)[C@H](CC[C@@H]5[C@@]6(C)CC[C@H](OC(=O)[C@H]7C[C@@H](C(=O)O)C7(C)C)C(C)(C)[C@@H]6CC[C@]54C)[C@@H]23)CC1 [Compound 57, (1R,3S)-2,2-dimethyl-3-((((1R,3aS,5aR,5bR,7aR,9S,11aR,11bR,13aR,13bR)-5a,5b,8,8,11a-pentamethyl-1-(1-methylcyclopropyl)-3a-(4-(5-phenyl-1H-imidazol-2-yl)piperidine-1-carbonyl)icosahydro-1H-cyclopenta[a]chrysen-9-yl)oxy)carbonyl)cyclobutane-1-carboxylic acid] |  |  | 4.42 nM | 66.4 µg·h/mL | 2.79 µg/mL
11 | CC1([C@@H]2CC[C@]3(C(=O)N4CCC[C@H]4c4ncc(C(F)(F)F)[nH]4)CC[C@]4(C)[C@H](CC[C@@H]5[C@@]6(C)CC[C@H](OC(=O)[C@H]7C[C@@H](C(=O)O)C7(C)C)C(C)(C)[C@@H]6CC[C@]54C)[C@@H]23)CC1 [Compound 59, (1R,3S)-2,2-dimethyl-3-((((1R,3aS,5aR,5bR,7aR,9S,11aR,11bR,13aR,13bR)-5a,5b,8,8,11a-pentamethyl-1-(1-methylcyclopropyl)-3a-((S)-2-(5-(trifluoromethyl)-1H-imidazol-2-yl)pyrrolidine-1-carbonyl)icosahydro-1H-cyclopenta[a]chrysen-9-yl)oxy)carbonyl)cyclobutane-1-carboxylic acid] | 71% | 100% | 55.4 nM | 451 µg·h/mL | 15.7 µg/mL
12 | CC(C)(CC(=O)O[C@H]1CC[C@]2(C)[C@H]3CC[C@@H]4[C@H]5[C@H](C6(C)CC6)CC[C@]5(C(=O)N5CCC[C@H]5c5ncc(-c6ccccn6)[nH]5)CC[C@@]4(C)[C@]3(C)CC[C@H]2C1(C)C)C(=O)O [Compound 62, 2,2-dimethyl-4-oxo-4-(((1R,3aS,5aR,5bR,7aR,9S,11aR,11bR,13aR,13bR)-5a,5b,8,8,11a-pentamethyl-1-(1-methylcyclopropyl)-3a-((S)-2-(5-(pyridin-2-yl)-1H-imidazol-2-yl)pyrrolidine-1-carbonyl)icosahydro-1H-cyclopenta[a]chrysen-9-yl)oxy)butanoic acid] |  |  | 0.8 nM | 93.1 µg·h/mL | 7.12 µg/mL

— patent US20170129916A1, “NOVEL BETULINIC PROLINE IMIDAZOLE DERIVATIVES AS HIV INHIBITORS” (HETERO RESEARCH FOUNDATION, priority 2014, published 2017)
